Here are results for 2 compounds from US9186346B2, “Methods for reducing the risk of an adverse teriflunomide and rosuvastatin interaction in multiple sclerosis patients” (SANOFI, priority 2013, dated 2015).

A word on the IC50: it is the midpoint of a concentration-inhibition curve. Lower therefore signals higher potency.

A short description of data set [1]: Crossover interaction study: effect of repeated doses of teriflunomide on the pharmacokinetics of a single dose of rosuvastatin in healthy male subjects. It counts as in vivo, human. As for the experimental part: A single-center, open-label, 1-sequence, 2-period, 2-treatment crossover study with a 5-day washout between periods was conducted in 15 healthy male subjects aged 18 to 45 to evaluate the effect of repeated doses of teriflunomide on the pharmacokinetics (PK) of a single dose of rosuvastatin 10 mg. All subjects received the following treatments during each period: • 1. Period 1: A single 10 mg dose of rosuvastatin was administered in fasted state followed by a 5-day washout (from Days 1 to 6). Day 6 corresponded to Day 1 of Period 2. • 2. Period 2: A loading dose of 70 mg teriflunomide was administered once a day for 4 days (Days 1 to 4), followed by 14 mg once a day for 8 days (Days 5 to 12) in fed conditions except for Day 12. A single dose of 10 mg rosuvastatin was co-administered with teriflunomide on Day 12 in fasted conditions.
The following PK parameters were calculated using noncompartmental methods from plasma rosuvastatin concentration obtained after single dose administration:
Rosuvastatin: Area under the plasma concentration versus time curve (AUC) from time zero to the real time corresponding to the last concentration above the lower limit of quantitation, tlast, (AUClast) and area under the plasma concentration versus time curve extrapolated to infinity (AUC).
Rosuvastatin: Maximum plasma concentration (Cmax) observed, time to reach maximum concentration (Tmax), tlast, and terminal half-life (t1/2z).
Rosuvastatin: Blood samples were collected at predose, 0.5, 1, 2, 3, 4, 5, 6, 8, 10, 12, 24 and 36 hours postdose on Day 1 of Period 1 and Day 12 of Period 2.
Rosuvastatin plasma concentrations were determined by a validated liquid chromatography couples with tandem mass spectrometry (LC-MS/MS) method, with a LLOQ (lower limit of quantification) of 50.1 pg/mL. Teriflunomide plasma concentrations were determined with a validated LC-MS/MS method with an LLOQ of 0.01 μg/mL.
Rosuvastatin PK parameters and teriflunomide Ctrough (trough plasma concentration) were summarized with descriptive statistics for each treatment.

The next data set concerns the target T1, human OATP1B1 (Homo sapiens, UniProt Q9Y6L6).
T1 sequence (Q9Y6L6 1-691): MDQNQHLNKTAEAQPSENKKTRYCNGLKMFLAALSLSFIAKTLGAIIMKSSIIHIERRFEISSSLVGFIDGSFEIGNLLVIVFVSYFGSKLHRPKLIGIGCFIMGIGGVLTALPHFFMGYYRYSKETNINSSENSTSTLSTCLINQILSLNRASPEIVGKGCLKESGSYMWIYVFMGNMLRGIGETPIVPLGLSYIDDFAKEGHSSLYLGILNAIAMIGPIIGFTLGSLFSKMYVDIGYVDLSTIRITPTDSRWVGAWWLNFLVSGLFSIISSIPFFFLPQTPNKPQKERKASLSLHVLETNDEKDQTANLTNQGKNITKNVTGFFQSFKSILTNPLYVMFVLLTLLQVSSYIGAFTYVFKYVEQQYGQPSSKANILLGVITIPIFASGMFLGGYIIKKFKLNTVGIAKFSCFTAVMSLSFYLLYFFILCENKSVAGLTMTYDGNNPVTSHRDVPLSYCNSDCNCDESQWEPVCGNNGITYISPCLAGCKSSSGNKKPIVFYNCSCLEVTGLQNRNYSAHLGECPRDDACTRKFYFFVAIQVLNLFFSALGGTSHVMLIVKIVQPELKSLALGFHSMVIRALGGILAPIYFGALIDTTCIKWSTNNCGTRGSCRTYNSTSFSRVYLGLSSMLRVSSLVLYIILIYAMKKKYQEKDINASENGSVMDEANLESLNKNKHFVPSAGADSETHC
Nature of the data set: In vitro inhibition of human OATP1B1. From the text:
(§1) The use of teriflunomide for treating multiple sclerosis is described in U.S. Pat. No. 6,794,410.

The target of the next data set is T2, OATP1B3 (Homo sapiens, UniProt Q9NPD5).
T2 sequence (Q9NPD5 1-702): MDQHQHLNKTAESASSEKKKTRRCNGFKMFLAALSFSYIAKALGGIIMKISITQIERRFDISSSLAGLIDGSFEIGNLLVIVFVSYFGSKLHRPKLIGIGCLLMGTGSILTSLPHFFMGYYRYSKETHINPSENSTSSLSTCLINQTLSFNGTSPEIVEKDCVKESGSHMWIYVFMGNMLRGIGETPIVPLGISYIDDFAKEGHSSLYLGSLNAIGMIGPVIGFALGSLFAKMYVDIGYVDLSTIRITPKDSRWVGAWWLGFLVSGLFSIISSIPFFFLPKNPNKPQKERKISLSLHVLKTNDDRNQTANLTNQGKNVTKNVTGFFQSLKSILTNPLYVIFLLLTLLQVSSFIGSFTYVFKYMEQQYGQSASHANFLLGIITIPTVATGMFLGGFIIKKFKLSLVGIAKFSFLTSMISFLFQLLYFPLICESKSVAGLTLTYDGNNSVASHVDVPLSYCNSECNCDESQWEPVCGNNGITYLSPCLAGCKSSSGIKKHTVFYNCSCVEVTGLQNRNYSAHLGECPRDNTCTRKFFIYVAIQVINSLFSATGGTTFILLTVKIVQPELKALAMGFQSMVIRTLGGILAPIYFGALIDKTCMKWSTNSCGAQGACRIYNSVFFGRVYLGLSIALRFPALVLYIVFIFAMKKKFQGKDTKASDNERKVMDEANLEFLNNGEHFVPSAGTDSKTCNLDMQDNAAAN
Nature of the data set: In vitro inhibition of OATP1B3.
Description: as §1

The target of a further data set is T3, OAT3 (Homo sapiens, UniProt Q8TCC7).
T3 sequence (Q8TCC7 1-542): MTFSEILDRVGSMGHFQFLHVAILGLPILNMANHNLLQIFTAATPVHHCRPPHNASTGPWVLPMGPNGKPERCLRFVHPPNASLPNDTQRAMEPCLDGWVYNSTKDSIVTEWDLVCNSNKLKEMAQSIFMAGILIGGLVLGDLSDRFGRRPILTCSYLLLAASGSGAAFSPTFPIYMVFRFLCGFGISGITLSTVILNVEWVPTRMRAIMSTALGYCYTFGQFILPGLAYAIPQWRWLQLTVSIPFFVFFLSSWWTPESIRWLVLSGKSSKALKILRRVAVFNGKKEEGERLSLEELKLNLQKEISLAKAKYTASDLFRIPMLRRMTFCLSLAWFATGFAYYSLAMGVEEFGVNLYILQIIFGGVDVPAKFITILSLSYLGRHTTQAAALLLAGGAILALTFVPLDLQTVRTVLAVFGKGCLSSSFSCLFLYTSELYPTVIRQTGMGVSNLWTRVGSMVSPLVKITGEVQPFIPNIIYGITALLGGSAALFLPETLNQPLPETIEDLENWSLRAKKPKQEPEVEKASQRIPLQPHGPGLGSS
Nature of the data set: In vitro inhibition of OAT3.
Description: as §1

The target of the next data set is T4, BCRP (Homo sapiens, UniProt Q9UNQ0).
T4 sequence (Q9UNQ0 1-655): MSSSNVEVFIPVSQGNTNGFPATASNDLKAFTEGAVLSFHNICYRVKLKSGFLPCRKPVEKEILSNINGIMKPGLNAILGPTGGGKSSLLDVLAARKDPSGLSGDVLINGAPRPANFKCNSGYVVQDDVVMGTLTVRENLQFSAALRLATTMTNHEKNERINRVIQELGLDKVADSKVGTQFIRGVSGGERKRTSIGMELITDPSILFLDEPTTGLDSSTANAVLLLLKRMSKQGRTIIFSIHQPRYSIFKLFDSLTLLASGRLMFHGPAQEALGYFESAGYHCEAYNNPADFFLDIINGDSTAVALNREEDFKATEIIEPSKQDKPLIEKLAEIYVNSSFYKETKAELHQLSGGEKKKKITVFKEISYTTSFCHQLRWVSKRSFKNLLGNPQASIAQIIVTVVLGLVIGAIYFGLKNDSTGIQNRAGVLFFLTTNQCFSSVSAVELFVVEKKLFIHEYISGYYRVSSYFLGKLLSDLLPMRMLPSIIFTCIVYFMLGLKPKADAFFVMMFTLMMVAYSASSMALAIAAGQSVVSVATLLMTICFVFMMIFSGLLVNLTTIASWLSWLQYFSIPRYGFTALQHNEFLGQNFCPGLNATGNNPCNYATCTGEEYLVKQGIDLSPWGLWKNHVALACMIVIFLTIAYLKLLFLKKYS
Nature of the data set: In vitro inhibition of BCRP.
Description: as §1

The mark [2] stands for this setting: following teriflunomide 70 mg QD for 4 days and 14 mg QD for 8 days.

With `CC(C)c1nc(N(C)S(C)(=O)=O)nc(-c2ccc(F)cc2)c1/C=C/[C@@H](O)C[C@@H](O)CC(=O)O` [Rosuvastatin], in data set [1] (setting [2]), the “Increase in mean rosuvastatin AUC” value is given as 2.51 fold and the “Increase in mean rosuvastatin Cmax” value was found to be 2.65 fold. The AUC(0-t) in data set [1] (male, human, plasma, rosuvastatin 10 mg alone, mean ± SD, N=15, read-out: Rosuvastatin AUClast) is 31.5 ± 16.4 ng·h/mL. Besides, in data set [1] (male, human, plasma, rosuvastatin 10 mg alone, median (min-max), N=15), the Tmax turned out to be 3 h. The Cmax in data set [1] (male, human, rosuvastatin 10 mg single dose alone, fasted, Day 1 Period 1, plasma, mean ± SD, N=15) is 3.65 ± 1.78 ng/mL. In data set [1] (rosuvastatin 10 mg alone, mean ± SD, N=15), the “Rosuvastatin t1/2z” value is 11.1 ± 2.99 h.
Consider `C/C(O)=C(\C#N)C(=O)Nc1ccc(C(F)(F)F)cc1` [Teriflunomide, (Z)-2-cyano-3-hydroxy-but-2-enoic acid-(4′-trifluoromethylphenyI)-amide], for which the IC50 at human OATP1B1 stood at 7.1 µM; at OATP1B3, 7.04 µM; against OAT3, 1.3 µM; against BCRP, 0.15 µM.
